The structures appear in SMILES notation.

The data set can be described thus: gradient 5% acetonitrile 3 min, to 50% in 2 min, to 85% in 15 min, held 3 min, 100 µL/min. The following applies: column: Zorbax Extend-C18 2.1 x 50 mm; eluents: water / acetonitrile, 0.1% formic acid. In short, it runs like this:
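Retention times come from adduct peaks that were picked computationally and then checked by hand. The standards, pure and pooled in mixtures of ~100 molecules, were run on a Zorbax Extend-C18 column (2.1 × 50 mm, 1.8 μm) at 100 μL/min with water and acetonitrile, each with 0.1% formic acid. Detection was by quadrupole time-of-flight mass spectrometry in positive and negative ionization mode, with a dead volume of 40 μL and a dwell volume of 900 μL.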
Take `Cc1cc(C)cc(-c2nnc(Cc3nc(-c4cccc(C(F)(F)F)c4)no3)o2)c1`: the RP-LC retention time came to 1250 s.
The same measure for `O=C(Nc1cccc(F)c1)N1CCN(Cc2nc3ccc(Cl)cc3o2)CC1`: 784 s; for `Nc1ncnc2c1ncn2C1CCCO1` (stereo not given): 580 s; for `COc1ccc(Cl)cc1NC(=O)C1CCN(S(C)(=O)=O)c2cc(C)ccc2O1` (stereo not given): 1110 s.
The same measure for `CCNC(=O)c1cc(C2CC2)[nH]n1`: 611 s.
With `CC1SC(C)C(=O)N(CC(=O)NCc2ccco2)C1=O` (stereo not given) the figure was 685 s; with `CC1=NC(C)(C)CC2CCC(O)C12` (stereo not given), 683 s; with `O=C(N1CCN(c2cc(-c3ccc(Cl)cc3)[nH]n2)CC1)C1(c2ccccc2)CC1`, 924 s.
The molecule `O=C(c1ccc(F)c(F)c1)N1CCN(C(=O)c2nnn3c2COC(c2ccccc2)C3)CC1` (stereo not given) showed an RP-LC retention time of 876 s.
The same measure for `CN(C)C[C@@H]1CN(Cc2ccncc2)C[C@H]1NS(=O)(=O)c1ccc(C#N)cc1`: 639 s; for `Cc1ccc(C(=O)Nc2nc(-c3ccc4c(c3)NC(=O)C(C)O4)cs2)cc1` (stereo not given): 918 s; for `COc1ccc(-n2cc(C(=O)Nc3ccc(SC)cc3)nn2)cc1`: 966 s.
With `CCn1cnc2ccc(-c3noc(-c4ccc(OC)cc4C)n3)cc21` the figure was 741 s; with `O=C(CCn1nnc2cc(-c3noc(-c4ccccc4F)n3)ccc21)N1CCCC1`, 865 s; with `O=C(Nc1ccc(F)cc1F)C1CCCN(S(=O)(=O)c2c[nH]c(C(=O)N3CCCCCC3)c2)C1` (stereo not given), 897 s.
The same measure for `CCCCOc1ccc(CNC(=O)CSc2nccnc2Oc2ccccc2)cc1`: 1130 s; for `O=C(c1ccc[nH]1)N1CCN(C(=O)c2ccco2)CC1`: 600 s.
With `COc1ccc2c(c1)Cc1sc(NC(=O)c3ccc(Br)cc3)nc1-2`, the RP-LC retention time was found to be 1130 s.
Turning to `COc1ccc(Cl)cc1NC(=O)COc1cc(C)nc(N2CCCC2)n1`, the RP-LC retention time was found to be 613 s.
With `Cn1ccc2cc(S(=O)(=O)N3CCCC(C(=O)NCCC4=CCCCC4)C3)ccc21` (stereo not given) the figure was 1040 s; with `COCC1(O)CCOC2(CCN(Cc3ccc(C)cc3C)CC2)C1` (stereo not given), 559 s.
With `Cc1ccc(CNC(=O)C2(C)CCCN(C(=O)Nc3ccc(C)cc3Cl)C2)cc1` (stereo not given) the figure was 1080 s; with `CC(=O)N1CCC2(CC1)OC(=O)C(C)=C2C(=O)N1CCc2ccccc2C1`, 692 s.
The same measure for `COc1cc(NC(=O)c2c(C)oc3nc(C)nc(N4CCOCC4)c23)cc(OC)c1`: 804 s.
Consider `O=C(C1CCCN(c2nc3ccccc3n3cccc23)C1)N1CCN(c2ccc(F)cc2)CC1` (stereo not given), for which the RP-LC retention time was 805 s.
In the case of `O=C(Cc1ccsc1)Nc1ccc2c(N3CCOCC3)ncnc2c1`, the RP-LC retention time is 619 s.
With `CC1CCCN(C(=O)c2cn(-c3ccc(S(=O)(=O)N4CCCC(C)C4)cn3)cn2)C1` (stereo not given) the figure was 939 s; with `CCc1cccc(NC(=O)Nc2c(-c3ccncc3)nc3ccccn23)c1`, 630 s; with `CCn1cc(C)c(C(=O)O)c1CC(=O)Nc1ccc(Cl)cn1`, 835 s.
`CC(C)c1ccc(C(=O)NC(Cc2ccccc2)c2nnc(N3CCSCC3)o2)cc1` (stereo not given) yielded an RP-LC retention time of 996 s.
With `O=C(Nc1ccccc1F)N1CCN(CCn2c(C(F)(F)F)nc3cccnc32)CC1` the figure was 624 s.
In the case of `CCNS(=O)(=O)c1cccnc1Nc1cccc(Cl)c1`, the RP-LC retention time came to 1030 s.
As to `Cc1cnc(C2CN(C(=O)C(C)C)C2)n1CC1CC1`, the RP-LC retention time amounted to 562 s.
For `Cc1cc(OCCN2CC2)c2ccccc2n1`, the RP-LC retention time was 664 s.
With `O=C(NC1CC1)[C@@H]1C[C@H](Oc2cccnc2)CN1C(=O)Cn1c(=O)oc2ccccc21` the figure was 596 s.
In turn, `CCCCc1ccc(NC(=O)Cn2cnc3nc(N4CCCC(C(=O)NC)C4)sc3c2=O)cc1` (stereo not given) showed an RP-LC retention time of 759 s.
With `CCS(=O)(=O)N1CC(=O)N(c2ccc(Cl)cc2C)C(C)(C(=O)NC2CCCCC2)C1` (stereo not given) the figure was 946 s.
With `Cn1c(N2CCC(C(=O)N3CCN(c4cccc(C(F)(F)F)c4)CC3)CC2)cc(=O)n(C)c1=O` the figure was 814 s; with `Cc1nnsc1C(=O)Nc1nnc(-c2ccnn2C)o1`, 665 s.
The same measure for `CCn1cc(S(=O)(=O)N2CCC(c3noc(-c4cccnc4)n3)C2)cn1` (stereo not given): 710 s; for `Cc1ccc(S(=O)(=O)N2C(=O)CCC2C(=O)NC2CCCCCCC2)cc1C` (stereo not given): 1060 s.
`O=C(NC1CCCc2ccccc21)c1cc2sccc2n1Cc1ccc(Cl)cc1` (stereo not given) gave an RP-LC retention time of 1320 s.
The same measure for `CSc1ncccc1C(=O)N1CCc2cc(-c3ccno3)ccc21`: 871 s.
With `Cc1nn(-c2ccc(-c3ccccc3)nn2)c(C)c1S(=O)(=O)N1CCN(c2ccccn2)CC1` the figure was 776 s; with `NS(=O)(=O)c1cccnc1Nc1ccc(Oc2ccccc2)cc1`, 953 s.
Molecule `COc1ccc(C(=O)N2CCC3(CC2)NC(=O)c2cc(Cl)ccc2N3C)cc1OC` gave an RP-LC retention time of 742 s.
The same measure for `COc1ccc(-c2cc(C(=O)NCC(c3ccco3)N(C)C)no2)cc1` (stereo not given): 661 s; for `O=C(c1cccc(Cl)c1)N1CCN(c2cc(-c3cccnc3)[nH]n2)CC1`: 621 s; for `CC(=O)Oc1cccc(C2C3=C(CC(C)(C)CC3=O)Nc3ccccc3N2C(C)=O)c1` (stereo not given): 735 s.
The same measure for `Cc1cccc(C)c1NC(=O)N1CCC(OC2CCN(Cc3ccccc3)CC2)CC1`: 661 s.
The same measure for `CC(C)NC(=O)N1CCC(c2noc(-c3cnccn3)n2)C1` (stereo not given): 624 s; for `CCN1CCN(CCCNC(=O)CN2C(=O)C3CCCCN3c3ccc(C(=O)N(C)C)cc32)CC1` (stereo not given): 579 s.
The molecule `COc1ccc(N2CCN(C(=O)Cn3nc(C(=O)N4CCCC4)c4ccccc43)CC2)cc1` came in with an RP-LC retention time of 753 s.
The same measure for `O=S(=O)(c1ccc(F)cc1)N1CCc2nc(-c3ccccc3)ncc2C1`: 1040 s; for `Cc1ccc(CNC(=O)c2cc(-c3ccncc3)cn2C)cc1C`: 672 s.
With `O=C(CCn1nnc2cc(-c3noc(-c4ccc(F)cc4)n3)ccc21)N1CCOCC1` the figure was 849 s; with `Cc1c(F)cccc1NC(=O)N1CC(Cc2nncn2C(C)C)C1`, 659 s.
The same measure for `O=C(CCc1ccc2nc(-c3ccccc3)[nH]c2c1)NCc1cccnc1`: 555 s; for `COC(=O)CCCC(=O)Nc1ccc2[nH]c(=O)oc2c1`: 608 s; for `Cc1cc(C)n(CCNC(=O)c2ccc3nsnc3c2)n1`: 638 s.

The values are drawn from the METLIN SMRT retention time set (Domingo-Almenara et al. 2019).
